Test results reported in ChEMBL document CHEMBL1129432, “Structure-activity relationships of a series of novel (piperazinylbutyl)thiazolidinone antipsychotic agents related to 3-[4-[4-(6-fluorobenzo[b]thien-3-yl)-1-piperazinyl]butyl]-2,5,5- trimethyl-4-thiazolidinone maleate” (J Med Chem, 1996).

Tests used:
[1] = target: D(2) dopamine receptor (Rattus norvegicus, UniProt P61169); test: Binding affinity towards Dopamine receptor D2 was determined in rat striatum using [3H]- spiperone as radioligand; assay type: tissue-based
Chain of D(2) dopamine receptor (P61169 whole entry): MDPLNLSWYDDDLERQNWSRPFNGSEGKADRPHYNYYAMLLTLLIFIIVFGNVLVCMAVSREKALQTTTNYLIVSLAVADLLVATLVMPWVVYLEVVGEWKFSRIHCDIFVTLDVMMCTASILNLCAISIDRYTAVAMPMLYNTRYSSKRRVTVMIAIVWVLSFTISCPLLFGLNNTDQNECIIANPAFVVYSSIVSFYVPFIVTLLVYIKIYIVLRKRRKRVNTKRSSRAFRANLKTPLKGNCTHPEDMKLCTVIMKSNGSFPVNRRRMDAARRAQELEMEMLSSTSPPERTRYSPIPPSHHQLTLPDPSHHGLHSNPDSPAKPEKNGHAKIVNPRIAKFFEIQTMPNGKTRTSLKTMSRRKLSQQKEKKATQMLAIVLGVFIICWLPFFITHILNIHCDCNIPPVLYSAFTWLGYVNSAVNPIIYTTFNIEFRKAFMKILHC

[2] = target: T1, 5-hydroxytryptamine receptor 1A (Rattus norvegicus, UniProt P19327); test: Binding affinity towards serotonin 5-HT1A receptor was determined in rat hippocampus using [3H]8-OH-DPAT as ligand; assay type: tissue-based
T1 sequence (P19327 whole entry): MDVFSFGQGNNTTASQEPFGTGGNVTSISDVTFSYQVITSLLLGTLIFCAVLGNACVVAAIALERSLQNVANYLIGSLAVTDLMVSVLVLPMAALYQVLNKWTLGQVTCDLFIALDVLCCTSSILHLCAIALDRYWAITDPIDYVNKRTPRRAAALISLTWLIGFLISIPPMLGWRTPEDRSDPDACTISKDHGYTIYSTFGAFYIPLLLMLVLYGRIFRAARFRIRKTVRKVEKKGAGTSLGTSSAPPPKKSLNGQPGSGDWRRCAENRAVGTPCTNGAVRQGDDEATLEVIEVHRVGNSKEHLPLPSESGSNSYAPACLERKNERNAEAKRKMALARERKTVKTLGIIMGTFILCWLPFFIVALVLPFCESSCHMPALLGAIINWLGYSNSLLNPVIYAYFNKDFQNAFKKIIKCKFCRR

[3] = target: Serotonin 2 (5-HT2) receptor (Rattus norvegicus, UniProt P30994+P08909+P14842); test: Binding affinity towards serotonin 5-HT2 receptor was determined in rat cortex using [3H]spiperone as ligand

IC50 [1] [nM] | IC50 [2] [nM] | IC50 [3] [nM] | SMILES
611 | 776 | 580 | CC1SC2(CCCC2)C(=O)N1CCCCN1CCN(c2csc3cc(Cl)ccc23)CC1 (configuration not stated)
 | 153 | 446 | CC1(C)SCN(CCCCN2CCN(c3ccc4ccccc4n3)CC2)C1=O
 | 1370 | 2310 | CC1(C)SCN(CCCCN2CCN(c3nc4ccccc4s3)CC2)C1=O
18 | 9030 | 142 | O=C1N(CCCCN2CCN(c3cn(-c4ccc(F)cc4)c4ccccc34)CC2)CSC12CCCCC2
 | 140 |  | O=C1CSCN1CCCCN1CCN(c2ccc(F)cc2)CC1
548 | 11 | 588 | COc1ccccc1N1CCN(CCCCN2CSC(C)(C)C2=O)CC1
1610 | 61 |  | Cc1ccccc1N1CCN(CCCCN2CSCC2=O)CC1
1960 | 34 |  | O=C1CSCN1CCCCN1CCN(c2cccc(C(F)(F)F)c2)CC1
 |  | 271 | CC1SC(C)(C)C(=O)N1CCCCN1CCN(c2nsc3cc(Cl)ccc23)CC1 (configuration not stated)
4730 | 855 | 1540 | CC1SC(C)(C)C(=O)N1CCCCN1CCN(c2csc3cc(Cl)ccc23)CC1 (configuration not stated)
193 | 7 | 12 | CC1(C)SCC(=O)N1CCCCN1CCN(c2nsc3ccccc23)CC1
1770 | 13 | 569 | Cc1ccccc1N1CCN(CCCCN2CSC(C)(C)C2=O)CC1
 | 220 |  | COc1ccccc1N1CCN(CCCCN2CSC(C)C2=O)CC1 (configuration not stated)
 | 12 |  | Cc1cccc(N2CCN(CCCCN3CSC(C)(C)C3=O)CC2)c1
8430 | 629 | 85 | CC1(C)SCN(CCCCN2CCN(c3cc4ccccc4cn3)CC2)C1=O
916 | 6 | 414 | Cc1cccc(N2CCN(CCCCN3CSC(C)(C)C3=O)CC2)c1C
2230 | 10 |  | CC1SCC(=O)N1CCCCN1CCN(c2cccc(Cl)c2)CC1 (configuration not stated)

IC50 [1] [nM] | IC50 [2] [nM] | IC50 [3] [nM] | SMILES
 | 332 | 641 | O=C1CSCN1CCCCN1CCN(c2ccc3ccccc3n2)CC1
835 |  |  | CC1(C)SCC(=O)N1CCCCN1CCN(c2cccc(Cl)c2)CC1
1640 | 7 | 90 | CC1(C)SCN(CCCCN2CCN(c3cccc(C(F)(F)F)c3)CC2)C1=O
2430 | 9 | 503 | CSc1cccc(N2CCN(CCCCN3C(=O)CSC3(C)C)CC2)c1
224 | 11 | 7 | O=C1CSCN1CCCCN1CCN(c2nsc3ccccc23)CC1
 | 18 |  | COc1ccccc1N1CCN(CCCCN2C(=O)C(C)(C)SC2(C)C)CC1
12600 | 140 |  | Cc1cccc(N2CCN(CCCCN3CSCC3=O)CC2)c1
2210 | 57 |  | O=C1CSCN1CCCCN1CCN(c2cccc(Cl)c2)CC1
 |  | > 20000 | O=C1N(CCCCN2CCN(C3=NS(=O)(=O)c4ccccc43)CC2)CSC12CCCC2
 | 367 | 8420 | O=C1CSCN1CCCCN1CCN(c2nc3ccccc3s2)CC1
3750 | 26 |  | Cc1cccc(N2CCN(CCCCN3C(=O)CSC3(C)C)CC2)c1
652 | 23 |  | O=C1CSCN1CCCCN1CCN(c2ccccc2Cl)CC1
8760 | 1280 |  | O=C1CSCN1CCCCN1CCN(c2ccc(Cl)cc2)CC1
778 | 83 |  | Cc1cccc(N2CCN(CCCCN3CSCC3=O)CC2)c1C
7490 | 139 |  | COc1cccc(N2CCN(CCCCN3CSCC3=O)CC2)c1
514 | 10 |  | COc1ccccc1N1CCN(CCCCN2C(=O)CSC2(C)C)CC1
1130 |  |  | CC1(C)SCC(=O)N1CCCCN1CCN(c2cccc(C(F)(F)F)c2)CC1

SMILES | IC50 [1] [nM] | IC50 [2] [nM] | IC50 [3] [nM]
Cc1cc2c(s1)Nc1ccccc1N=C2N1CCN(C)CC1 [OLANZAPINE] |  |  | 47
